# Molecular target: T1, histamine H4 receptor (Homo sapiens, UniProt Q9H3N8)
# T1 construct: expressed in transfected cells; host or cells: CHO cells
# Test: H4 binding, method 2 ([3H]-histamine binding with Ysi WGA beads on CHO cell membranes)
# Conditions: H4 binding, method 2; Ki calculated from IC50 (Cheng-Prussoff); read-out: Method 2 (Ki (nM))
# Procedure: Cell pellets from CHO cells expressing the histamine H4 receptor were homogenised in ice-cold 50 mM Tris-HCl/0.5 mM CaCl2 buffer containing a protease inhibitor cocktail (Roche®, United Kingdom) using a ground glass homogeniser. Homogenates were centrifuged at 48000 g for 30 min at 4° C. The membrane pellet was resuspended in fresh buffer and the centrifugation step was repeated as described above. The membrane pellet was resuspended in 50 mM Tris-HCl in the same volume as the original cell pellet. Aliquots of membrane preparations were stored at −80° C. and were used for [^3H]-Histamine binding experiments.
# Cell membranes (15 μg/well) were pre-incubated for 120 min shaking at 4° C. with Ysi WGA beads (250 μg/well) in 50 mM Tris-HCl (pH 7.4) followed by centrifugation at 1500 rpm for 5 minutes and resuspension in 50 mM Tris-HCl (pH 7.4). The membrane/bead mixture (15 μg membrane/250 μg beads well) was incubated for 90 minutes shaking at room temperature with 6.5 nM [2,5-^3H] Histamine dihydrochloride (30-60 Ci/mmol) in 50 mM Tris-HCl (pH 7.4), with or without competing H4 ligands. Non-specific binding was defined with 10 μM JNJ7777120. Bound radiolabel was determined using scintillation counting techniques after 90 minutes.
row,Structure (SMILES),Ki
1,"CC(C)CNc1cc(N2C[C@H]3CCCN[C@H]3C2)ncn1 (relative stereo) [Example 125, N-Isobutyl-6-[(4aR*,7aR*)-octahydro-6H-pyrrolo[3,4-b]pyridin-6-yl]pyrimidin-4-amine]",223 nM
2,"CCNc1cc(N2CC[C@@H](NC)C2)nc(N)n1 [Example 12, N^4-Ethyl-6-[(3R)-3-(methylamino)pyrrolidin-1-yl]pyrimidine-2,4-diamine]",52.4 nM
3,"CCNc1cc(N2CC[C@@H](NC)C2)ncn1 [Example 13, N-Ethyl-6-[(3R)-3-(methyl-amino)pyrrolidin-1-yl]pyrimidin-4-amine]",51.8 nM
4,"CN[C@@H]1CCN(c2cc(NCC3CC3)ncn2)C1 [Example 15, N-(Cyclopropylmethyl)-6-[(3R)-3-(methylamino)pyrrolidin-1-yl] pyrimidin-4-amine]",19.2 nM
5,"CCNc1cc(N2CC[C@H](NC)C2)ncn1 [Example 16, N-Ethyl-6-[(3S)-3-(methyl-amino)pyrrolidin-1-yl] pyrimidin-4-amine]",1740 nM
6,"CN[C@H]1CCN(c2cc(NCCC(C)(C)C)ncn2)C1 [Example 17, N-(3,3-Dimethylbutyl)-6-[(3S)-3-(methylamino)pyrrolidin-1-yl]pyrimidin-4-amine]",483 nM
7,"CN(C)[C@@H]1CCN(c2cc(NCCC(C)(C)C)ncn2)C1 [Example 18, 6-[(3R)-3-(Dimethylamino)pyrrolidin-1-yl]-N-(3,3-dimethylbutyl)pyrimidin-4-amine]",387 nM
8,"CN(C)[C@@H]1CCN(c2cc(NCC3CC3)ncn2)C1 [Example 19, N-(Cyclopropylmethyl)-6-[(3R)-3-(dimethylamino)pyrrolidin-1-yl]pyrimidin-4-amine]",132 nM
9,"CCNc1cc(N2CC[C@@H](N(C)C)C2)ncn1 [Example 21, 6-[(3R)-3-(Dimethylamino)pyrrolidin-1-yl]-N-ethyl-pyrimidin-4-amine]",722 nM
10,"CCCNc1cc(N2C[C@H]3CN(C)C[C@H]3C2)nc(N)n1 [Example 34, 6-[(3aR*,6aS*)-5-Methylhexahydropyrrolo[3,4-c]pyrrol-2(1H)-yl]-N^4-propylpyrimidine-2,4-diamine]",452 nM
11,"CNc1cc(N2C[C@H]3CN(C)C[C@H]3C2)nc(N)n1 [Example 35, N^4-Methyl-6-[(3aR*,6aS*)-5-methylhexahydro-pyrrolo[3,4-c]pyrrol-2(1H)-yl]pyrimidine-2,4-diamine]",662 nM
12,"CCNc1cc(N2C[C@H]3CN(C)C[C@H]3C2)nc(N)n1 [Example 36, N^4-Ethyl-6-[(3aR*,6aS*)-5-methylhexahydro-pyrrolo[3,4-c]pyrrol-2(1H)-yl]pyrimidine-2,4-diamine]",1620 nM
13,"CC(C)CNc1cc(N2C[C@H]3CN(C)C[C@H]3C2)nc(N)n1 [Example 37, N^4-Isobutyl-6-[(3aR*,6aS*)-5-methylhexahydro-pyrrolo[3,4-c]pyrrol-2(1H)-yl]pyrimidine-2,4-diamine]",181 nM
14,"CN1C[C@@H]2CN(c3cc(NCC4CC4)nc(N)n3)C[C@@H]2C1 [Example 38, N^4-(Cyclopropylmethyl)-6-[(3aR*,6aS*)-5-methylhexahydro-pyrrolo[3,4-c]pyrrol-2(1H)-yl]pyrimidine-2,4-diamine]",128 nM
15,"CN1C[C@@H]2CN(c3cc(NCCC(C)(C)C)nc(N)n3)C[C@@H]2C1 [Example 40, N^4-(3,3-Dimethylbutyl)-6-[(3aR*,6aS*)-5-methylhexahydro-pyrrolo[3,4-c]pyrrol-2(1H)-yl]pyrimidine-2,4-diamine]",192 nM
16,"CC(C)CCNc1cc(N2C[C@H]3CN(C)C[C@H]3C2)nc(N)n1 [Example 41, N^4-(3-Methylbutyl)-6-[(3aR*,6aS*)-5-methylhexahydro-pyrrolo[3,4-c]pyrrol-2(1H)-yl]pyrimidine-2,4-diamine]",202 nM
17,"CN1C[C@@H]2CN(c3cc(NC4CC4)nc(N)n3)C[C@@H]2C1 [Example 42, N^4-Cyclopropyl-6-[(3aR*,6aS*)-5-methylhexahydro-pyrrolo[3,4-c]pyrrol-2(1H)-yl]pyrimidine-2,4-diamine]",433 nM
18,"CN1C[C@@H]2CN(c3cc(NC4CCC4)nc(N)n3)C[C@@H]2C1 [Example 43, N^4-Cyclobutyl-6-[(3aR*,6aS*)-5-methylhexahydro-pyrrolo[3,4-c]pyrrol-2(1H)-yl]pyrimidine-2,4-diamine]",236 nM
19,"CNC1CN(c2cc(NCC3CC3)ncn2)C1 [Example 44, Cyclopropylmethyl-[6-(3-methylamino-azetidin-1-yl)-pyrimidin-4-yl]-amine]",20.5 nM
20,"CNC1CN(c2cc(NCc3cccc(F)c3)ncn2)C1 [Example 45, (3-Fluoro-benzyl)-[6-(3-methylamino-azetidin-1-yl)-pyrimidin-4-yl]-amine]",420 nM
21,"CNC1CN(c2cc(NC(C)C)ncn2)C1 [Example 46, N-Isopropyl-6-[3-(methylamino)azetidin-1-yl]pyrimidin-4-amine]",40.1 nM
22,"CNC1CN(c2cc(NCc3ccc(F)cc3)ncn2)C1 [Example 47, N-(4-Fluorobenzyl)-6-[3-(methylamino)azetidin-1-yl]pyrimidin-4-amine]",256 nM
23,"CCNc1cc(N2CC(NC)C2)ncn1 [Example 48, N-Ethyl-6-[3-(methylamino)azetidin-1-yl]pyrimidin-4-amine]",49.7 nM
24,"CNC1CN(c2cc(NCCO)ncn2)C1 [Example 50, 2-({6-[3-(Methylamino)azetidin-1-yl]pyrimidin-4-yl}amino)ethanol]",279 nM
25,"CNC1CN(c2cc(NCc3ccccc3)ncn2)C1 [Example 51, N-Benzyl-6-[3-(methylamino)azetidin-1-yl]pyrimidin-4-amine]",161 nM
26,"CNC1CN(c2cc(NCc3ccccc3Cl)ncn2)C1 [Example 52, N-(2-Chlorobenzyl)-6-[3-(methylamino)azetidin-1-yl]pyrimidin-4-amine]",99.7 nM
27,"CNC1CN(c2cc(N3CCC(C)CC3)ncn2)C1 [Example 53, N-Methyl-1-[6-(4-methylpiperidin-1-yl)pyrimidin-4-yl]azetidin-3-amine]",1940 nM

# Next, values leading:
row,Ki,Structure (SMILES)
1,414 nM,"CNC1CN(c2cc(NCCOC)ncn2)C1 [Example 54, N-(2-Methoxyethyl)-6-[3-(methylamino)azetidin-1-yl]pyrimidin-4-amine]"
2,28.9 nM,"CNC1CN(c2cc(NCCC(C)C)ncn2)C1 [Example 55, 6-[3-(Methylamino)azetidin-1-yl]-N-(3-methylbutyl)pyrimidin-4-amine]"
3,1590 nM,"CNC1CN(c2cc(N3CCCCC3)ncn2)C1 [Example 56, N-Methyl-1-(6-piperidin-1-ylpyrimidin-4-yl)azetidin-3-amine]"
4,20.3 nM,"CNC1CN(c2cc(NCC(C)(C)C)ncn2)C1 [Example 57, N-(2,2-Dimethylpropyl)-6-[3-(methylamino)azetidin-1-yl]pyrimidin-4-amine]"
5,61.1 nM,"CNC1CN(c2cc(NCc3cccc(OC)c3)nc(N)n2)C1 [Example 66, N^4-(3-Methoxy-benzyl)-6-(3-methylamino-azetidin-1-yl)-pyrimidine-2,4-diamine]"
6,9.38 nM,"CNc1cc(N2CC(NC)C2)nc(N)n1 [Example 69, N^4-Methyl-6-[3-(methylamino)azetidin-1-yl]pyrimidine-2,4-diamine]"
7,11.9 nM,"CNC1CN(c2cc(NC3CC3)nc(N)n2)C1 [Example 72, N^4-Cyclopropyl-6-[3-(methylamino)azetidin-1-yl]pyrimidine-2,4-diamine]"
8,125 nM,"CNC1CN(c2cc(NCc3ccc(OC(F)(F)F)cc3)nc(N)n2)C1 [Example 76, 6-[3-(Methylamino)azetidin-1-yl]-N^4-[4-(trifluoromethoxy)benzyl]pyrimidine-2,4-diamine]"
9,255 nM,"CNC1CN(c2cc(NCc3ccc(C#N)cc3)nc(N)n2)C1 [Example 77, 4-[({2-Amino-6-[3-(methyl-amino)azetidin-1-yl]pyrimidin-4-yl}amino)methyl]benzonitrile]"
10,3.66 nM,"CNC1CN(c2cc(NCc3ccccc3F)nc(N)n2)C1 [Example 78, N^4-(2-Fluorobenzyl)-6-[3-(methylamino)azetidin-1-yl]pyrimidine-2,4-diamine]"
11,11.2 nM,"CNC1CN(c2cc(NCc3ccccc3)nc(N)n2)C1 [Example 79, N^4-Benzyl-6-[3-(methylamino)azetidin-1-yl]pyrimidine-2,4-diamine]"
12,103 nM,"CNC1CN(c2cc(NCc3cccc(C(F)(F)F)c3)nc(N)n2)C1 [Example 80, 6-[3-(Methylamino)azetidin-1-yl]-N^4-[3-(trifluoromethyl)benzyl]pyrimidine-2,4-diamine]"
13,12.1 nM,"CNC1CN(c2cc(NCc3ccc(Cl)cc3)nc(N)n2)C1 [Example 81, N^4-(4-Chlorobenzyl)-6-[3-(methylamino)azetidin-1-yl]pyrimidine-2,4-diamine]"
14,9.68 nM,"CNC1CN(c2cc(NCc3ccccc3C)nc(N)n2)C1 [Example 82, 6-[3-(Methylamino)azetidin-1-yl]-N^4-(2-methylbenzyl)pyrimidine-2,4-diamine]"

# Same assay, conditions: Method 2 (Ki (nM)), H4 binding, method 2; Ki calculated from IC50 (Cheng-Prussoff)
row,Structure (SMILES),Ki
1,"CN1C[C@@H]2CN(c3cc(NCC(C)(C)C)nc(N)n3)C[C@@H]2C1 [Example 39, N^4-(2,2-Dimethylpropyl)-6-[(3aR*,6aS*)-5-methylhexahydro-pyrrolo[3,4-c]pyrrol-2(1H)-yl]pyrimidine-2,4-diamine]",88.9 nM
